Reference: EP3351262A1, “CURAGLUTIDE FOR IN TREATMENT OF PREDIABETES, DIABETES, OBESITY AND METABOLIC DISEASES ASSOCIATED THERETO” (Istanbul Universitesi Rektorlugu, priority 2016, dated 2018)
Read-outs that look alike come from different tables or passages of the source.

What was measured:
[1] = Cell viability by MTT test; type: cell-based, rat; details: rat, 24 h, INS-1 cells, control 100%
Method: (§1) INS-1 cell strain from rat origin used in the studies was proliferated by performing routine passages once per week. The cells were grown under 1 atm pressure, in the incubator containing 5% CO2 and 95% air, in powder RPMI 1640 medium containing heat inactivated 10% fetal bovine serum (FBS) and antibiotics (100 unit/ml penicillin G100, 100 µg/ml streptomycin), 1% sodium pyruvate, hepes, sodium bicarbonate and beta-mercaptoethanol at 37 °C. The cells produced in 75 cm^2 sterile culture plate were used for the experiment when they covered 60-80% of the culture plate.
(§2) The cells to be used in the experiments were removed from the surface of culture plate where they stuck, when they cover 60-80% of the culture plate, by using trypsin. In order to prevent the effect of trypsin to cells whose removal was monitored under microscope, the medium with the equal amount as trypsin was added and the cell suspension was collected in the centrifuge tube and centrifuged in 1500 rpm for 5 minutes. The supernatant was removed after centrifuge, the medium was added to the cells remained in the bottom part of the tube and pipetted in order to form single cell suspension. The total amount of cells was calculated by using hemocytometer. 50 000 INS-1 beta cells taken from 100% viable single cell suspension, whose cell amount was calculated, were cultured to each of the culture plates with 96 wells. The cultured cells were incubated at 37 °C for 24 hours in order to provide the sticking to the surface of culture plate and growing. After 24 of incubation, the cells were treated with 0.25 mM, 0.5 mM, 0.75 mM, 1 mM, 1.25 mM, 1.5 mM, 1.75 mM, […], 2.75 mM, 3 mM, 3.25 mM, 3.5 mM, 3.75 mM,4 mM, 4.25 mM, 4.5 mM, 4.75 mM, 5 mM palmitic acid which were the chosen doses for palmitic acid. 10 wells including the control group were used in the experiments and 24-hour experiment groups were formed for each of the concentrations.
(§3) After the removal of the grown cells by trypsin, culturing was performed to 96 wells in a way such that there would be 50 000 cells in 200 µl. The cultured cells were incubated at 37 °C for 24 hours in order to provide growing. After 24 h of incubation, the cells were treated with 1nM, 10nM, 100nM curaglutide which were the chosen doses. 10 wells including the control group were used in the experiments and 24-hour experiment groups have been formed for each of the concentrations.
(§4) MTT ([3-(4, 5-dimethyl tiazol-2-il)-2, 5 diphenyl tetrazolium bromide]) test is a drug sensitivity test based on cell culture principal, it aims to assess the cell growth and/or cell death in an indirect way. This frequently used test differs from the other testing methods, with the advantages that it is fast, sensitive, reproducible and easy to apply. The cracking of the tetrazolium ring of MTT paint by mitochondria in living cells underlies the basis of this method. This reaction is catalyzed by succinate dehydrogenase which is a mitochondrial enzyme. MTT is absorbed to cells actively and it is reduced to formazan which is non-soluble in water and has blue-purple color, by the reaction taking place in mitochondria. The MTT reducing properties of the cells are accepted as the cell viability criteria and they are directly proportionate to the paint density and living cell amount obtained by MTT analyze. While living cells with non-damaged mitochondria function are painted with purple color, cells that are dead or with damaged mitochondria function are not painted. Following bringing the formazan crystals formed by incubated living cells into soluble form, reaction product is read […].
(§5) 50 mg MTT (AppliChem A2231 0001) was weighed, it was dissolved by completing 10 ml with RPMI 1640 medium via vortex, with paying attention that there are no not-dissolved paint particles left, and they were obtained by filtering through 0.22 µm filter. It was used by preparing a fresh one each time. […]

[2] = tested on: INS-1 cells; assay: Cell viability by MTT test; type: cell-based, rat; details: 2 mM palmitic acid, repetitive experiments
Method: as §1, §2, §3, §4, §5

[3] = molecular target: dipeptidyl peptidase IV (DPP-IV) (Homo sapiens, UniProt P27487); details: proteolytic enzyme DPP-IV; cited from earlier work
dipeptidyl peptidase IV (DPP-IV), sequence (P27487 whole entry, species assumed): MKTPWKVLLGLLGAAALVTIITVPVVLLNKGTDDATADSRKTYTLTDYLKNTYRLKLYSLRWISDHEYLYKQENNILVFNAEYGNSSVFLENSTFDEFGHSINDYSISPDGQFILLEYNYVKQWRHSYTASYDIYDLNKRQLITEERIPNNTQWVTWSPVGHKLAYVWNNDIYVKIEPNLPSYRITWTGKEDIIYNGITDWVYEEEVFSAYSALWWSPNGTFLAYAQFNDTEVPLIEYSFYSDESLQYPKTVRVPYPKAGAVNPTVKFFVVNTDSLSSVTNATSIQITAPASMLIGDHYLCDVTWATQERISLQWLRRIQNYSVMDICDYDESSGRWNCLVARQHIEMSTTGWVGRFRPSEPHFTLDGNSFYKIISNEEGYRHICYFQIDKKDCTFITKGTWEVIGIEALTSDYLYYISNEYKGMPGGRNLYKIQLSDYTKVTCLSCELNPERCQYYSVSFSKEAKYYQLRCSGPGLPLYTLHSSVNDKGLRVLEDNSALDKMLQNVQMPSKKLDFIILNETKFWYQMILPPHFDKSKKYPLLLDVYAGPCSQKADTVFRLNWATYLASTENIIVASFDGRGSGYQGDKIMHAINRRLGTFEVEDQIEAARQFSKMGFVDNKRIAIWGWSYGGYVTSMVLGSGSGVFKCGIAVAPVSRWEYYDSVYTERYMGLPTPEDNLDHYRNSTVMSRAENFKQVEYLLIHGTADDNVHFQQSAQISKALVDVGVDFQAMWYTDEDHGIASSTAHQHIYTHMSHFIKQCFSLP

[4] = tested on: INS-1 cells; type: cell-based, rat; details: for cell viability values: 24 hours, INS-1 cells, control 100±3.3%
Method: as §1
The cells to be used in the experiments were removed from the surface of culture plate where they stuck, when they cover 60-80% of the culture plate, by using trypsin. In order to prevent the effect of trypsin to cells whose removal was monitored under microscope, the medium with the equal amount as trypsin was added and the cell suspension was collected in the centrifuge tube and centrifuged in 1500 rpm for 5 minutes. The supernatant was removed after centrifuge, the medium was added to the cells remained in the bottom part of the tube and pipetted in order to form single cell suspension. The total amount of cells was calculated by using hemocytometer. 50 000 INS-1 beta cells taken from 100% viable single cell suspension, whose cell amount was calculated, were cultured to each of the culture plates with 96 wells. The cultured cells were incubated at 37 °C for 24 hours in order to provide the sticking to the surface of culture plate and growing. After 24 of incubation, the cells were treated with 0.25 mM, 0.5 mM, 0.75 mM, 1 mM, 1.25 mM, 1.5 mM, 1.75 mM, 2 mM, 2.5 mM, 2.75 mM, 3 mM, 3.25 mM, 3.5 mM, 3.75 mM,4 mM, 4.25 mM, 4.5 mM, 4.75 mM, 5 mM palmitic acid which were the chosen doses for palmitic acid. 10 wells including the control group were used in the experiments and 24-hour experiment groups were formed for each of the concentrations.
as §3, §4, §5

CCCCCCCCCCCCCCCC(=O)O [palmitic acid]
viability at 24 h, 0.25 mM ([1]; 0.25 mM palmitic acid): 92 ± 2.4% | viability at 24 h, 0.5 mM ([1]; 0.5 mM palmitic acid): 81.5 ± 7.6% | viability at 24 h, 0.75 mM ([1]; 0.75 mM palmitic acid): 75.6 ± 4.37% | viability at 24 h, 1 mM ([1]; 1 mM palmitic acid): 74.8 ± 2.35% | viability at 24 h, 1.25 mM ([1]; 1.25 mM palmitic acid): 72.7 ± 7.7% | viability at 24 h, 1.5 mM ([1]; 1.5 mM palmitic acid): 69.9 ± 7.4% | viability at 24 h, 1.75 mM ([1]; 1.75 mM palmitic acid (autophagic dose)): 60.6 ± 11.6% | viability at 24 h, 2 mM ([1]; 2 mM palmitic acid (apoptotic dose)): 50.1 ± 11% | viability at 24 h, 2.25 mM ([1]; 2.25 mM palmitic acid): 58.4 ± 11.5% | viability at 24 h, 2.5 mM ([1]; 2.5 mM palmitic acid): 49.9 ± 3% | viability at 24 h, 2.75 mM ([1]; 2.75 mM palmitic acid): 62.9 ± 4.3% | viability at 24 h, 3 mM ([1]; 3 mM palmitic acid (necrotic dose)): 36.5 ± 3.3% | viability at 24 h, 3.25 mM ([1]; 3.25 mM palmitic acid): 44.1 ± 8.7% | viability at 24 h, 3.5 mM ([1]; 3.5 mM palmitic acid): 39.4 ± 11.4% | viability at 24 h, 3.75 mM ([1]; 3.75 mM palmitic acid): 42.9 ± 8.2% | viability at 24 h, 4 mM ([1]; 4 mM palmitic acid (necrotic dose)): 41 ± 6.6% | viability at 24 h, 4.25 mM ([1]; 4.25 mM palmitic acid): 44.9 ± 11.8% | viability at 24 h, 4.5 mM ([1]; 4.5 mM palmitic acid): 37.3 ± 10.5% | viability at 24 h, 4.75 mM ([1]; 4.75 mM palmitic acid): 35.7 ± 3.7% | viability at 24 h, 5 mM ([1]; 5 mM palmitic acid): 42.1 ± 4.4% | cell death [2]: 50%

CC[C@H](C)[C@H](NC(=O)[C@H](Cc1ccccc1)NC(=O)[C@H](CCC(=O)O)NC(=O)[C@H](CCCCN)NC(=O)[C@H](C)NC(=O)[C@H](C)NC(=O)[C@H](CCC(N)=O)NC(=O)CNC(=O)[C@H](CCC(=O)O)NC(=O)[C@H](CC(C)C)NC(=O)[C@H](Cc1ccc(O)cc1)NC(=O)[C@H](CO)NC(=O)[C@H](CO)NC(=O)[C@@H](NC(=O)[C@H](CC(=O)O)NC(=O)[C@H](CO)NC(=O)[C@@H](NC(=O)[C@H](Cc1ccccc1)NC(=O)[C@@H](NC(=O)CNC(=O)[C@H](CCC(=O)O)NC(=O)[C@H](C)NC(=O)[C@H](Cc1c[nH]cn1)NC(C)=O)[C@@H](C)O)[C@@H](C)O)C(C)C)C(=O)N[C@@H](C)C(=O)N[C@@H](Cc1c[nH]c2ccccc12)C(=O)N[C@@H](CC(C)C)C(=O)N[C@H](C(=O)N[C@@H](CCCCN)C(N)=O)C(C)C [curaglutide]
destruction by DPP-IV [3]: resistant to destruction by DPP-IV | cell viability values ([4]; 1 nM curaglutide alone): 104.50±3.70% | cell viability values ([4]; 10 nM curaglutide alone): 121.80±7.30% | % cell viability values ([4]; 10 nM curaglutide as curative agent (24 h after 24 h palmitic acid) for 1.75 mM palmitic acid (autophagic dose)): 78.3±1.6% | % cell viability values ([4]; 10 nM curaglutide as curative agent for 2 mM palmitic acid (apoptotic dose)): 60.9±4.3% | % cell viability values ([4]; 10 nM curaglutide as curative agent for 3 mM palmitic acid (necrotic dose)): 56.5±1.7% | % cell viability values ([4]; 10 nM curaglutide as curative agent for 4 mM palmitic acid): 46.6±5.8% | % cell viability values ([4]; 10 nM curaglutide as protective against 3 mM palmitic acid (necrotic dose)): 56.4±4.7% | % cell viability values ([4]; 10 nM curaglutide as protector (24 h pre-treatment, then with palmitic acid 24 h) against 1.75 mM palmitic acid (autophagic dose)): 129.9±4.6% | % cell viability values ([4]; 10 nM curaglutide as protector against 2 mM palmitic acid (apoptotic dose)): 103.9±0.6% | % cell viability values ([4]; 10 nM curaglutide as protector against 4 mM palmitic acid): 52.2±4.6% | cell viability values ([4]; 100 nM curaglutide alone): 115.20±3.30%
